Measured values: patent US5539123A, “Low molecular weight thiocarbamates as inhibitors of elastase, uses and method of synthesis” (University of Kentucky Research Foundation, priority 1994, dated 1996)
Several values for one entry are separate records, joined by “and”; a condition that tells them apart may be missing. Equal values may be shown once. Entries after “also recorded” stand apart in the source; their conditions may differ.

Test system: Zymosan Induced Inflammation
Test: Zymosan-induced paw inflammation (arthritis) in rats, percent volume increase of the paw
Assay type: in vivo, rat
Details: for % Oedema Volume change: 3.6 × 10^-5 mg/g IP vs control
From the text: A reversible arthritic condition was induced according to known procedures for the Zymosan-induced arthritis (See J. P. Tarayre, A. Delphon, et al., Pharmacological studies in zymosan inflammation in rats and mice, I: Zymosan-induced paw edema in rat and mice, Pharmacological Research, 21, (#4) 375-384 (1989); Takuo Sato, Yoshitaka Ino, et al., Inhibitory effects of a novel synthetic protease inhibitor (FUT-175), on the paw edema in rats and Zymosan-induced compliment activation in vitro, Japan J. Pharmacol., 42,587-589 (1986); David K. Gremmell, et al., Comparative effects of drugs on four paw edema models on the rat, Agents and Actions 4, (#1) 107-116 (1979); and D. C. Keystone, et al., Zymosan-induced arthritis: A model of chronic proliferative arthritis following activation of the alternative pathway of compliment, Arthritis and Rheumatism 20 (#7) 1396-1401 (1977)).
Each rat (250 g each) was kept in a restraining cage with light ether anesthesia until the administration of the drug. The procedure involves the intramuscular (IM) injection of 1 mg of Zymosan in 50 μL (microliters) of normal saline in the pad of a hind paw of the rat. Swelling becomes evident within 20 minutes and reaches a maximum within 1.5 hours. The swelling disappears after 24 hours. In the Figures the reversal to normal size of the paw within 24 hours is not shown. The degree of swelling is measured by a water displacement method and the percent (%) of volume increase of the paw is plotted against time (see J. P. Tarayre, A. Delphon, et al., Pharmacological studies in zymosan inflammation in rats and mice. I: Zymosan-induced paw edema in rat and mice, Pharmaco-logical Research, 21, (#4) 375-384 (1989); Takuo Sato, Yoshitaka Ino, et al., Inhibitory effects of a novel synthetic protease inhibitor (FUT-175), on the paw edema in rats and Zymosan-induced compliment activation in vitro, Japan J. Pharmacol., 42, 587-589 (1986)).
Control was conducted by injecting I.P. 100 μl of propylene glycol (the vehicle) 15 min. prior to Zymosan administration. […] Data from tables 1 and 1a are plotted in FIGS. 1 and 1a respectively.
In the experimental procedure the drug [PC-16, […] (FIG. 2) or 90 μg/rat (FIG. 3)] is dissolved in 100 μL of propylene glycol and is injected IP to the rats. Fifteen minutes later the Zymosan (1mg/50 μL of normal saline) solution is injected IM into the paw of the rats. The degree of swelling is subsequently measured at various time intervals for a period of 24 hours and is reported up to 4 hours.

[1] = 3.6 × 10^-4 mg/g IP, time (min) = first number of the line

CCCCNC(=O)Sc1nnnn1-c1ccccc1 [PC-16]
% Volume Increase (3.6 × 10^-4 mg/g IP, 205 min): 3.41% | % Volume Increase, Mean of 3 experiments (3.6 × 10^-4 mg/g IP, 210 min): 3.48% | % Volume Increase, Mean of 3 experiments (3.6 × 10^-4 mg/g IP, 220 min): 3.30% | % Volume Increase (3.6 × 10^-4 mg/g IP, 225 min): 3.32% | % Volume Increase, Mean of 3 experiments (3.6 × 10^-4 mg/g IP, 230 min): 3.34% | % Volume Increase, Mean of 3 experiments (3.6 × 10^-4 mg/g IP, 240 min): 2.93% | % Volume Increase, Experiment #3 [1]: 0.00% and 1.02% and 1.55% and 2.18% and 2.75% and 3.44% and 3.50% | Volume, Experiment #3 [1]: 1.65 mL and 1.67 mL and 1.68 mL and 1.69 mL and 1.70 mL and 1.71 mL | % Oedema Volume change (10 min): 28.0% | % Oedema Volume change (20 min): -42.8% | % Oedema Volume change (30 min): -54.1% | % Oedema Volume change (40 min): -58.3% | % Oedema Volume change (50 min): -60.8% | % Oedema Volume change (60 min): -65.8% | % Oedema Volume change (65 min): -64.8% | % Oedema Volume change (70 min): -65.7% | % Oedema Volume change (80 min): -63.9% | % Oedema Volume change (95 min): -66.4% | % Oedema Volume change (100 min): -68.2% | % Oedema Volume change (105 min): -68.7% | % Oedema Volume change (115 min): -69.9% | % Oedema Volume change (120 min): -69.6% | % Oedema Volume change (130 min): -68.8% | % Oedema Volume change (135 min): -65.8% | % Oedema Volume change (145 min): -64.6% | % Oedema Volume change (150 min): -67.7% | % Oedema Volume change (160 min): -67.4% | % Oedema Volume change (175 min): -66.7% | % Oedema Volume change (190 min): -69.2% | % Oedema Volume change (200 min): -67.6% | % Oedema Volume change (205 min): -65.6% | % Oedema Volume change (210 min): -63.4% | % Oedema Volume change (220 min): -61.2% | % Oedema Volume change (225 min): -61.9% | % Oedema Volume change (240 min): -62.7% | % Volume Increase, Mean of 3 experiments (3.6 × 10^-5 mg/g IP, 0 min): 0.00% | % Volume Increase, Mean of 3 experiments (3.6 × 10^-5 mg/g IP, 10 min): 12.2% | % Volume Increase, Mean of 3 experiments (3.6 × 10^-5 mg/g IP, 20 min): 16.3% | % Volume Increase, Mean of 3 experiments (3.6 × 10^-5 mg/g IP, 30 min): 17.3% | % Volume Increase, Mean of 3 experiments (3.6 × 10^-5 mg/g IP, 40 min): 18.8% | % Volume Increase, Mean of 3 experiments (3.6 × 10^-5 mg/g IP, 50 min): 19.1% | % Volume Increase, Mean of 3 experiments (3.6 × 10^-5 mg/g IP, 60 min): 19.5% | % Volume Increase, Mean of 3 experiments (3.6 × 10^-5 mg/g IP, 65 min): 19.8% | % Volume Increase, Mean of 3 experiments (3.6 × 10^-5 mg/g IP, 70 min): 20.0% | % Volume Increase, Mean of 3 experiments (3.6 × 10^-5 mg/g IP, 80 min): 20.5% | % Volume Increase, Mean of 3 experiments (3.6 × 10^-5 mg/g IP, 95 min): 19.7% | % Volume Increase, Mean of 3 experiments (3.6 × 10^-5 mg/g IP, 100 min): 18.6% | % Volume Increase, Mean of 3 experiments (3.6 × 10^-5 mg/g IP, 105 min): 18.4% | % Volume Increase, Mean of 3 experiments (3.6 × 10^-5 mg/g IP, 115 min): 17.9% | % Volume Increase, Mean of 3 experiments (3.6 × 10^-5 mg/g IP, 120 min): 17.7% | % Volume Increase, Mean of 3 experiments (3.6 × 10^-5 mg/g IP, 130 min): 17.7% | % Volume Increase, Mean of 3 experiments (3.6 × 10^-5 mg/g IP, 135 min): 17.7% | % Volume Increase, Mean of 3 experiments (3.6 × 10^-5 mg/g IP, 145 min): 17.7% | % Volume Increase, Mean of 3 experiments (3.6 × 10^-5 mg/g IP, 150 min): 15.6% | % Volume Increase, Mean of 3 experiments (3.6 × 10^-5 mg/g IP, 160 min): 15.2% | % Volume Increase, Mean of 3 experiments (3.6 × 10^-5 mg/g IP, 175 min): 14.4% | % Volume Increase, Mean of 3 experiments (3.6 × 10^-5 mg/g IP, 190 min): 12.6% | % Volume Increase, Mean of 3 experiments (3.6 × 10^-5 mg/g IP, 200 min): 13.3% | % Volume Increase, Mean of 3 experiments (3.6 × 10^-5 mg/g IP, 205 min): 13.5% | % Volume Increase, Mean of 3 experiments (3.6 × 10^-5 mg/g IP, 210 min): 13.6% | % Volume Increase, Mean of 3 experiments (3.6 × 10^-5 mg/g IP, 220 min): 13.6% | % Volume Increase, Mean of 3 experiments (3.6 × 10^-5 mg/g IP, 225 min): 12.4% | % Volume Increase, Mean of 3 experiments (3.6 × 10^-5 mg/g IP, 240 min): 12.1% | oedema reduction of rat paw (injected prior to Zymosan, compared with control): impressive oedema reduction; also recorded: impressive reduction in edema swelling
